US4224343A, “Process and composition for decreasing blood serum prolactin levels” (Massachusetts Institute of Technology, priority 1979, dated 1980)
“And” between values parts separate entries of the source, which are not always exact repeats. Equal entries are not always repeated. Where two headings read alike, the source gives them in different places.

How the values were obtained:
[1] = biological target: T1, Striatal Tyrosine Hydroxylase (Rattus norvegicus, UniProt P04177); test: Kms of striatal tyrosine hydroxylase after in vivo pretreatment; assay type: biochemical; conditions: for Km: striatal homogenate of treated rats
T1 construct: 10,000 g supernatant of Triton X-100 homogenate of rat corpus striatum
T1 sequence (P04177 whole entry): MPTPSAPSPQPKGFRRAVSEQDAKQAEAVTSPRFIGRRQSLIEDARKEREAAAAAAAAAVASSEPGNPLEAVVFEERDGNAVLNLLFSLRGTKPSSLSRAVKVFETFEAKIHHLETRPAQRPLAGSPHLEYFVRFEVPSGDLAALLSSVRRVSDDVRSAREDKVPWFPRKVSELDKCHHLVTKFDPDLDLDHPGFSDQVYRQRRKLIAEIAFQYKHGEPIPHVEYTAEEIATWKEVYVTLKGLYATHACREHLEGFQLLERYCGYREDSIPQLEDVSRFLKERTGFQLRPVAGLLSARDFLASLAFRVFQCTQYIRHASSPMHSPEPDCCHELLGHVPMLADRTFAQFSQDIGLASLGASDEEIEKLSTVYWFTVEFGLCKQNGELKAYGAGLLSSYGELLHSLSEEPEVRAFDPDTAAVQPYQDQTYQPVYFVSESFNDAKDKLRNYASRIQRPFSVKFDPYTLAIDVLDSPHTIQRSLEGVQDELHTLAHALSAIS
Description: Corpora striata were homogenized in 10 volumes of 0.05 M Tris-acetate buffer (pH 6.0), containing 0.2 percent Triton X-100 (Harleco, Philadelphia, PA). The homogenates were centrifuged for 10 min. at 10,000 g, and the supernatant fluids were collected for assay (Coye, 1972). The assay medium contained, in a total volume of 110 μl: 50 μl of a supernatant fluid; 65 nmoles of DMPH4 (2-amino-4-hydroxy-6,7-dimethyl-5,6,7,8-tetrahydropteridine hydrochloride [synthetic cofactor obtained from Calbiochem, San Diego, CA]); 29 nanomoles of pyridoxal phosphate; 4 nanomoles of 2-mercaptoethanol; 240 units of catalase; 0.01 millimoles phosphate buffer (pH 6.2); and 10 μl of aromatic L-amino acid decarboxylase prepared from hog kidneys (Coyle, 1972). Samples were preincubated for 2 min. at 27° C.
The assay was stopped by the addition of 0.5 ml of 10 percent trichloroacetic acid. The acidified medium was then shaken for 2 hours to recover the ^14 CO2, which was trapped by folded filter paper strips placed in 0.2 ml of NCS tissue solubilizer (Amersham/Searle, Arlington Heights, IL). The strips were then transferred to scintillation vials containing 10 ml of Aquasol (New England Nuclear, Boston, MA), and their radioactivity was counted.

[2] = tested on: brain dopamine release; test: Accumulation of HVA in corpora striata of rats given haloperidol or probenecid after tyrosine (FIG. 2); conditions: for striatal HVA concentration: tyrosine 100 mg/kg or diluent, 20 min later haloperidol 2 mg/kg or probenecid 200 mg/kg i.p., sacrificed 70 min after second injection, corpora striata
Description: Male, 150 to 200 g Sprague-Dawley rats (Charles River Breeding Laboratories, Wilmington, MA) were exposed to light (Vita-Lite, Duro-Test Co., North Bergen, N.J.) between 9 AM and 9 PM daily and allowed access to Big Red Rat Chow (Charles River Breeding Laboratories) and water ad limitum. Drugs were injected intraperitoneally at a volume of 2 ml/kg body weight. […] Control animals received the appropriate diluents. […] Brains were quickly removed, and the striata were dissected out (Glowinski and Iverson, 1966), frozen on dry ice, and subsequently assayed for HVA. Tyrosine was assayed in homogenates of the remaining brain (Waalkes and Udenfriend, 1957).

[3] = tested on: Norepinephrine synthesis and turnover in brain neurons; test: Accumulation of brain MOPEG-SO4 after probenecid administration and pretreatment with tyrosine; conditions: for Brain MOPEG-SO4 Level / Brain Tyrosine Level: killed 60 min after second injection, whole brain, mean ± SEM; for effect on brain MOPEG-SO4: substance given alone, versus diluent; for effect on brain tyrosine levels: tyrosine 100 mg/kg i.p., probenecid 400 mg/kg, two-way analysis of variance
From the text: (§1) Male Sprague-Dawley rats (Charles River Breeding Laboratories, Wilmington, MA) weighing 150 g were housed in hanging cages (6-8 per cage), given ad libitum access to tap water and a 26% protein diet (Charles River Rat-Mouse-Hamster Maintenance Formula 24RF), and maintained under light (300 microwatts/cm^2; Vita-Lite, Duro-Test Corp., North Bergen, N.J.) between 8 AM and 8 PM daily. Rats used for diet experiments were fasted overnight and then allowed to consume the experimental diet starting at 10 AM. Diets of different compositions were prepared in agar gel ([…] of water) as described by Gibson et al., Biochem. Pharmacol., 26, 1137-1142 (1977). All amino acids and drugs were injected intraperitoneally.
(§2) Norepinephrine synthesis and turnover in brain neurons were estimated by measuring the rate of accumulation of MOPEG-SO4 after probenecid administration or exposure to a cold environment. […] An aliquot of each homogenate (in 0.15 M ZnSO4) was first assayed for tyrosine by the method of Waalkes and Undenfriend, J. Lab. Clin. Med., 50, 733-736 (1957). An equal volume of 0.15 M barium hydroxide was then added to the remaining homogenate, which was rehomogenized (Polytron, Brinkman Instruments, N.Y.), centrifuged and assayed for MOPEG-SO4 by the method of Meek and Neff above.
Tyrosine (Grand Island Biological Co., Long Island, N.Y.) and probenecid (Sigma Chemical Co., St. Louis, MO), which are poorly soluble in water, were dissolved in dilute NaOH; the solutions were then buffered to pH 7.4 with hydrochloric acid and brought to a known volume with saline. This yielded a fine suspension that was suitable for injection.
In each of 3 experiments, groups of 4-6 rats were injected with either a
dose of tyrosine (100 mg/kg, i.p.) known to accelerate brain dopa
synthesis or its diluent and, 30 min. later, with probenecid (400 mg/kg,
[…].) or its diluent. Animals were killed 60 min. after the second
injection, and their whole brains were analyzed for tyrosine and […]

[4] = tested on: Norepinephrine synthesis and turnover in brain neurons; test: Brain tyrosine and MOPEG-SO4 in rats exposed to cold (4° C.) after amino acid injection (FIG. 1)
From the text: as §1, §2
In experiments on stress produced by exposure to cold, animals received the more soluble ethyl-ester form of tyrosine (J. T. Baker, Phillipsburg, N.J.), instead of tyrosine itself, to raise brain tyrosine levels. Data were analyzed by one-way or two-way analysis of variance.
Placing the rats in a cold environment (4° C.) increases norepinephrine turnover; this accelerates the formation of both norepinephrine itself and its metabolite, MOPEG-SO4, in brain neurons. The rats were exposed to cold to determine whether treatments that changed brain tyrosine levels could influence the rate at which the brain accumulates MOPEG-SO4 in rats exposed to cold stress and not given probenecid (FIG. 1).
The relationship shown in FIG. 1 was obtained as follows: Groups of rats were injected intraperitoneally with valine (200 mg/kg), an amino acid that competes with tyrosine for uptake into the brain (8), or with tyrosine (125 mg/kg of the ethyl ester) or saline; 30 min. later they were placed in single cages in a cold (4° C.) environment. After 1 hr., all animals were killed, and their whole brains were analyzed for tyrosine and MOPEG-SO4. Control animals were injected with saline and left at room temperature (22° C.), also in a single cages, for 90 min. Each point represents the tyrosine and MOPEG-SO4 levels present in a single brain. Data were pooled from several experiments. […] In FIG. 1, the symbols are as follows: closed circles, animals pretreated with valine; open circles, animals pretreated with saline; closed squares, animals pretreated with tyrosine.

[5] = tested on: Serum Prolactin; test: Serum prolactin by radioimmunoassay in reserpine-treated rats; assay type: in vivo, rat
Description: Groups of 4 male rats received reserpine (2.5 mg/kg/day, divided into two equal doses each day) intraperitoneally for four days. On day 5, in the morning, no reserpine was administered, but instead half of the animals received tyrosine (200 mg/kg) or the vehicle (saline), and were killed two hours later. Sera were collected and assayed by radioimmunoassay for prolactin.

[6] = pretreatment (tyrosine 100 mg/kg i.p. or diluent), 30 min later probenecid 400 mg/kg
[7] = tyrosine 125 mg/kg of the ethyl ester i.p., cold (4° C.) 1 hr
[8] = pretreatment tyrosine 100 mg/kg i.p., 30 min later diluent

O=C(CCCN1CCC(O)(c2ccc(Cl)cc2)CC1)c1ccc(F)cc1 [Haloperidol, haloperidol]
Km ([1]; DMPH4 concentrations 0.1 to 0.5 mM, read-out: Km for DMPH4): 130 ± 10 µM | Km ([1]; tyrosine concentrations 0.125-1.0 mM, read-out: Km for tyrosine): 48.1 ± 1.9 µM | striatal HVA concentration [2]: 2.00 ± 0.10 µg/g

CCCN(CCC)S(=O)(=O)c1ccc(C(=O)O)cc1 [Probenecid, probenecid, reference compound]
striatal HVA concentration [2]: 1.30 ± 0.10 µg/g | Brain MOPEG-SO4 Level [3, 6]: 175 ng/g and 175 ± 6 ng/g | effect on brain MOPEG-SO4 [3]: significantly raised | effect on brain tyrosine levels [3]: failed to modify

N[C@@H](Cc1ccc(O)cc1)C(=O)O [Tyrosine, tyrosine]
effect of prior administration on the Kms of tyrosine hydroxylase for tyrosine or DMPH4 in vitro ([1]; tyrosine 100 mg/kg in vivo): failed to affect | potentiation of the accumulation of HVA in striata of haloperidol-treated rats ([2]; tyrosine 100 mg/kg 20 min before haloperidol 2 mg/kg): 59% | effect on HVA levels in animals given probenecid ([2]; tyrosine 100 mg/kg 20 min before probenecid 200 mg/kg): failed | brain tyrosine levels ([4]; i.p. injection (tyrosine 125 mg/kg of the ethyl ester; valine 200 mg/kg) 30 min before 1 hr in cold (4° C.), whole brain): 24.6 µg/g | brain MOPEG-SO4 levels ([4]; tyrosine 125 mg/kg of the ethyl ester i.p. 30 min before 1 hr in cold (4° C.), whole brain): 193 ng/g | rise in brain MOPEG-SO4 versus saline-injected animals [4, 7]: 70% | rise in brain tyrosine levels versus saline-injected animals [4, 7]: about 80% | Brain MOPEG-SO4 Level [3, 6]: 203 ng/g and 203 ± 8 ng/g | Brain Tyrosine Level [3, 6]: 24.7 ± 1.3 µg/g | Brain MOPEG-SO4 Level [3, 8]: 127 ± 2 ng/g | Brain Tyrosine Level [3, 8]: 23.3 ± 1.5 µg/g | effect on brain MOPEG-SO4 [3]: no effect | effect of tyrosine pretreatment on the probenecid-induced rise in MOPEG-SO4 ([3]; tyrosine 100 mg/kg i.p. 30 min before probenecid 400 mg/kg): significantly enhanced | effect on brain tyrosine levels [3]: significantly raised | Serum Prolactin ([5]; male rats, reserpine […] i.p. for four days, day 5 tyrosine 200 mg/kg, killed two hours later, mean ± standard error): 44 ± 2 ng/mL | effect on serum prolactin levels ([5]; reserpine-pretreated rats, tyrosine 200 mg/kg): lowers serum prolactin levels

CC(C)[C@H](N)C(=O)O [valine, reference compound]
effect on brain tyrosine or MOPEG-SO4 levels ([4]; valine 200 mg/kg i.p., cold (4° C.) 1 hr): failed, in this study, to cause significant alterations
